Values quoted from earlier work in patent publication US20170016004A1, “DDX5 AND ASSOCIATED NON-CODING RNAs AND MODULATION OF TH17 EFFECTOR FUNCTION” (priority 2015, published 2017).

Tested on: ileal and colonic SMAD7
Conditions: oral

Question: Which “treatment of Crohn's Disease” value does the source give for mongersen here?
Answer: used successfully
